Here are results for one compound from patent publication US20060052458A1, “Preventive or remedy for intrauterine late embryonic development or pregnancy toxemia” (KISSEI PHARMACEUTICAL CO., LTD., priority 2003, published 2006).

SMILES strings stand for the structures. Marks after values point to notes of the source that are not given here.

The subject of data set [1] is rat L-NAME-induced gestational toxicosis model. As to the kind of experiment: Confirmation of effects on gestational toxicosis (Test Example 2). Type of data set: in vivo. From the text: A gestational toxicosis model was created as follows. A 17th -gestation day rat was anesthetized with ether. Then, the poll was incised approximately 10 mm to transplant in control group an osmotic pressure pump filled with L-NAME, and in the normal group, in the similar manner, an osmotic pressure pump filled with physiological saline in place of L-NAME. To the test group, in addition to the above pump, an osmotic pressure pump filled with bis(2-{[(2S)-2-({(2R)-2-hydroxy-2-[4-hydroxy-3-(2-hydroxyethyl)phenyl]ethyl}amino)-1,2,3,4-tetrahydronaphthalene-7-yl]oxy}-N,N-dimethylacetamide) monosulfate (the compound represented by the above formula (Ia)) was implanted. On the 20th gestation day, the mother animal was anesthetized with ether, and the fetus was extirpated. Severity of static gangrene at the tip of fetal extremities was examined, and the amount of maternal urinary albumin and plasma triglyceride level were measured.
While bis(2-{[(2S)-2-({(2R)-2-hydroxy-2-[4-hydroxy-3-(2-hydroxyethyl)phenyl]ethyl)amino)-1,2,3,4-tetrahydronaphthalene-7-yl]oxy)-N,N-dimethylacetamide) monosulfate was dissolved in physiological saline and an osmotic pressure pump with the dose of 200 μg/day was inserted, L-NAME was dissolved in physiological saline to make 200 mg/mL for filling and an osmotic pressure pump with the dose of 48 mg/day was inserted.

Data set [2] has as its system rat intrauterine growth retardation model induced by L-NAME. Put plainly: Confirmation of effects on IUGR (Test Example 1). Type of data set: in vivo. From the text: IUGR model was created as follows in accordance with the method by Yallampalli et al. (Am J Obstet Gynecol, vol. 169: 1316-1320, 1993). A 17th-gestation day rat was anesthetized with ether. Then, the poll was incised approximately 10 mm to transplant in control group an osmotic pressure pump filled with L-NAME, and in the normal group, in the similar manner, an osmotic pressure pump filled with physiological saline in place of L-NAME. To the test group, in addition to the above pump, an osmotic pressure pump filled with bis(2-{[(2S)-2-({(2R)-2-hydroxy-2-[4-hydroxy-3-(2-hydroxyethyl)phenyl]ethyl}amino)-1,2,3,4-tetrahydronaphthalene-7-yl]oxy)-N,N-dimethylacetamide) monosulfate (the compound of the above formula (Ia)) was implanted. On the 20th gestation day, the mother animal was anesthetized with ether, and the fetus was extirpated and weighed. Maternal blood pressure was measured before ether anesthesia on the 17th and 20th gestation days. In statistical analysis, comparisons of control group with normal group or test group were conducted in F-test for variance. When there was equal variance, unpaired t-tests were performed. When there was unequal variance, Welch's test was performed.
Bis(2-{[(2S)-2-({(2R)-2-hydroxy-2-[4-hydroxy-3-(2-hydroxyethyl)phenyl]ethyl}amino)-1,2,3,4-tetrahydronaphthalene-7-yl]oxy}-N,N-dimethylacetamide) sulfate was dissolved in physiological saline and an osmotic pressure pump with the dose of 50 μg/day was inserted, while L-NAME was dissolved in physiological saline to make 50 mg/mL for filling and an osmotic pressure pump with the dose of 12 mg/day was inserted.

The mark [3] stands for this setting: L-NAME 48 mg/day + compound 200 μg/day by osmotic pump from gestation day 17, examined on day 20.
[4] abbreviates: L-NAME 48 mg/day + compound 200 μg/day by osmotic pump, gestation day 20.

In the case of `CN(C)C(=O)COc1ccc2c(c1)C[C@@H](NC[C@H](O)c1ccc(O)c(CCO)c1)CC2` [formula (Ia), bis(2-{[(2S)-2-({(2R)-2-hydroxy-2-[4-hydroxy-3-(2-hydroxyethyl)phenyl]ethyl}amino)-1,2,3,4-tetrahydronaphthalene-7-yl]oxy}-N,N-dimethylacetamide) monosulfate], in data set [1] (setting [3]), the “Static gangrene in the tip of extremities (incidence %)” value was 8% and the “The number of static gangrene in the tip of extremities/The number of fetuses” value was 16/203. Further, in data set [1] (setting [4]), the Maternal plasma triglyceride level came out at 143 µg/mL and the “Maternal urinary albumin level” value was 222.1# μg/mL. Moreover, the “Change in maternal blood pressure after administration (effect on maternal heart)” value in data set [2] (50 μg/day by osmotic pump, gestation days 17 to 20) was “no change in maternal blood pressure”. The “Mean blood pressure of dam” value in data set [2] (Day 20 of gestation, L-NAME 12 mg/day + compound 50 μg/day by osmotic pump) was determined as 102.5 mmHg. For the same compound, in data set [2] (pregnant rat, L-NAME 12 mg/day + compound 50 μg/day by osmotic pump from gestation day 17, fetus weighed on day 20), the Fetal body weight was 3550 mg.
